Reference: ChEMBL document CHEMBL1201862, “PubChem BioAssay data set” (2004)
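1) Cells in 96-well plates. 2) Compound, 48 h, 5 concentrations. 3) Linear interpolation between surrounding doses. 4) Unreached endpoint = highest concentration. At the GI50, growth is halved.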 Active and inactive are the calls of the source. Cut-off read from the data, not from the text of the source: active = GI50 up to about 1.1 µM and inactive = higher.

Key:
Test in all cases: DTP human tumour cell line panel, 48 h
[1] = tested on: CAKI-1
[2] = tested on: HL-60
[3] = tested on: OVCAR-4
[4] = tested on: SNB-19
[5] = tested on: SK-MEL-28
[6] = tested on: U-251
[7] = tested on: HCT-15
[8] = tested on: Malme-3M
[9] = tested on: ACHN
[10] = tested on: KM12
[11] = tested on: SF-295
[12] = tested on: SF-268
[13] = tested on: K562
[14] = tested on: EKVX
[15] = tested on: A549
[16] = tested on: UO-31
[17] = tested on: HCT-116

Row | SMILES | GI50 [1] | GI50 [2] | GI50 [3] | GI50 [4] | GI50 [5] | GI50 [6] | GI50 [7] [µM] | GI50 [8] | GI50 [9] | GI50 [10] | GI50 [11] | GI50 [12] | GI50 [13] | GI50 [14] | GI50 [15] | GI50 [16] | GI50 [17]
1 | OC1c2ccccc2C2(O)C1C(c1ccccc1)C(c1ccccc1)C2(O)c1ccccc1 (configuration not stated) | 15.5 µM (inactive) | 8.87 µM (inactive) | 19.5 µM (inactive) | 23.5 µM (inactive) | 11.9 µM (inactive) | 8.17 µM (inactive) | 3.06 | 12.7 µM (inactive) | 5.82 µM (inactive) | 10.6 µM (inactive) | 6.52 µM (inactive) | 6.79 µM (inactive) | 5.71 µM (inactive) | 15.4 µM (inactive) | 11.4 µM (inactive) | 13.4 µM (inactive) | 
2 | C/C(=N\OCC(O)CNC(C)C)c1ccc2c(c1)NC(=O)CS2 (configuration not stated) |  |  | > 100 µM (inactive) | > 100 µM (inactive) | > 100 µM (inactive) | > 100 µM (inactive) | > 100 | > 100 µM (inactive) | > 100 µM (inactive) | > 100 µM (inactive) | > 100 µM (inactive) | > 100 µM (inactive) | > 100 µM (inactive) | > 100 µM (inactive) | > 100 µM (inactive) | 91.2 µM (inactive) | > 100 µM (inactive)
3 | c1ccc(C2Nc3ccccc3C3OCCCC23)cc1 (configuration not stated) | 2.47 µM (inactive) | 24.7 µM (inactive) | 47.3 µM (inactive) | 31.3 µM (inactive) |  | 17.8 µM (inactive) | 27 | 30.7 µM (inactive) | 11.3 µM (inactive) | 25.1 µM (inactive) | 16.6 µM (inactive) | 25.6 µM (inactive) | 14.6 µM (inactive) | 20.9 µM (inactive) | 20.5 µM (inactive) | 27 µM (inactive) | 17.6 µM (inactive)
4 | Cc1cc(C)nc(NS(=O)(=O)c2ccc(NC(=O)c3cccc4c(Nc5ccc(S(=O)(=O)Nc6nc(C)cc(C)n6)cc5)c5ccc(Cl)cc5nc34)cc2)n1 | 19.5 µM (inactive) |  | 35.6 µM (inactive) | 28.1 µM (inactive) | 29.6 µM (inactive) | 27.5 µM (inactive) | 75.5 | 16.4 µM (inactive) | 27.3 µM (inactive) | 33.1 µM (inactive) | 38 µM (inactive) | 28.6 µM (inactive) | 26.1 µM (inactive) | 29.5 µM (inactive) | 41.1 µM (inactive) | 13.4 µM (inactive) | 28.1 µM (inactive)
5 | COC(=O)[C@]1(C)CCC[C@]2(C)C3CC4OOC3(C=C4C(C)C)CCC21 (some centres not stated) | 21.9 µM (inactive) | 2.07 µM (inactive) | 19.9 µM (inactive) | 17.4 µM (inactive) |  | 19.8 µM (inactive) | 16.5 | 20.8 µM (inactive) | 17.4 µM (inactive) | 17.4 µM (inactive) | 16.3 µM (inactive) | 15.4 µM (inactive) | 12 µM (inactive) | 16.7 µM (inactive) | 16.8 µM (inactive) | 15.2 µM (inactive) | 15.7 µM (inactive)
6 | CCOC(=O)CCC1(C(=O)OC)CCCC1=O (configuration not stated) |  | > 100 µM (inactive) |  | > 100 µM (inactive) | > 100 µM (inactive) | > 100 µM (inactive) |  | > 100 µM (inactive) | > 100 µM (inactive) | > 100 µM (inactive) | > 100 µM (inactive) | > 100 µM (inactive) | > 100 µM (inactive) | > 100 µM (inactive) | > 100 µM (inactive) | > 100 µM (inactive) | > 100 µM (inactive)
7 | CCC(C)NC1=C(NC(C)=O)C(=O)c2ccccc2C1=O (configuration not stated) | > 75 µM (inactive) | 17.5 µM (inactive) | > 75 µM (inactive) | > 75 µM (inactive) | > 75 µM (inactive) | > 75 µM (inactive) | 46.1 | > 75 µM (inactive) | > 75 µM (inactive) | > 75 µM (inactive) | > 75 µM (inactive) | > 75 µM (inactive) | 43.9 µM (inactive) | > 75 µM (inactive) | > 75 µM (inactive) | > 75 µM (inactive) | > 75 µM (inactive)
8 | Cc1ccc(/C=N/NS(=O)(=O)c2ccccc2)c(C)c1 | > 100 µM (inactive) | > 100 µM (inactive) | > 100 µM (inactive) |  | > 100 µM (inactive) | > 100 µM (inactive) | > 100 | > 100 µM (inactive) | > 100 µM (inactive) | > 100 µM (inactive) | > 100 µM (inactive) | > 100 µM (inactive) | > 100 µM (inactive) | > 100 µM (inactive) | > 100 µM (inactive) | > 100 µM (inactive) | > 100 µM (inactive)
9 | CCOC(=O)C(Cc1ccc([N+](=O)[O-])cc1)NC(=O)CC1c2ccccc2-c2ccccc21 (configuration not stated) |  | > 100 µM (inactive) | 55 µM (inactive) | 39.3 µM (inactive) | 90.8 µM (inactive) | 43.9 µM (inactive) | > 100 | 20.6 µM (inactive) | 20.7 µM (inactive) | > 100 µM (inactive) | 51.5 µM (inactive) | 50.7 µM (inactive) | > 100 µM (inactive) | > 100 µM (inactive) | 81.8 µM (inactive) | > 100 µM (inactive) | > 100 µM (inactive)
